This experiment addresses Integrin alpha-IIb/beta-3 (Homo sapiens, UniProt P08514+P05106). Kind of experiment: ChEBML_215984.

Broadly, the IC50 is the concentration needed to halve the response being measured. A higher IC50 goes with a need for much substance.

Chain of Integrin alpha-IIb/beta-3 (P05106 27-788 limits assumed): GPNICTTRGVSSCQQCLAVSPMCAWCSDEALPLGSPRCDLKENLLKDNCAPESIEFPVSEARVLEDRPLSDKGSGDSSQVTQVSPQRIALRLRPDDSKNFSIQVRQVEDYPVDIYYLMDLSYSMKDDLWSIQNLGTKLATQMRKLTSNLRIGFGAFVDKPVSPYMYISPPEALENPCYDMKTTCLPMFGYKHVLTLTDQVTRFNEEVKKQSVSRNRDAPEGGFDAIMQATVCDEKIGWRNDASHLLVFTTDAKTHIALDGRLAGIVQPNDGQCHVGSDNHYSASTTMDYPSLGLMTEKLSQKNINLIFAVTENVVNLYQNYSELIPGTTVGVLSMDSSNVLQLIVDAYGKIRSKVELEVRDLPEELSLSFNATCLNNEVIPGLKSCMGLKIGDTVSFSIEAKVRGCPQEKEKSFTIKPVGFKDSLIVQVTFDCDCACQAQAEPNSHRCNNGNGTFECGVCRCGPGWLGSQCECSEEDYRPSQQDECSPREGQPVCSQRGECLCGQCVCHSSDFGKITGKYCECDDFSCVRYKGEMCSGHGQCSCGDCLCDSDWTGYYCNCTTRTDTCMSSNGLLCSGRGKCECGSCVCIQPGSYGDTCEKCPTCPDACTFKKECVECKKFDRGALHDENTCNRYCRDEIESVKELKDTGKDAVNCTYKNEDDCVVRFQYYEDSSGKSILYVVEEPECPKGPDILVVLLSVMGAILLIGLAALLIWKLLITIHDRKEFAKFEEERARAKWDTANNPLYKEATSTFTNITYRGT
Chain of Integrin alpha-IIb/beta-3 (P08514 32-887 limits assumed): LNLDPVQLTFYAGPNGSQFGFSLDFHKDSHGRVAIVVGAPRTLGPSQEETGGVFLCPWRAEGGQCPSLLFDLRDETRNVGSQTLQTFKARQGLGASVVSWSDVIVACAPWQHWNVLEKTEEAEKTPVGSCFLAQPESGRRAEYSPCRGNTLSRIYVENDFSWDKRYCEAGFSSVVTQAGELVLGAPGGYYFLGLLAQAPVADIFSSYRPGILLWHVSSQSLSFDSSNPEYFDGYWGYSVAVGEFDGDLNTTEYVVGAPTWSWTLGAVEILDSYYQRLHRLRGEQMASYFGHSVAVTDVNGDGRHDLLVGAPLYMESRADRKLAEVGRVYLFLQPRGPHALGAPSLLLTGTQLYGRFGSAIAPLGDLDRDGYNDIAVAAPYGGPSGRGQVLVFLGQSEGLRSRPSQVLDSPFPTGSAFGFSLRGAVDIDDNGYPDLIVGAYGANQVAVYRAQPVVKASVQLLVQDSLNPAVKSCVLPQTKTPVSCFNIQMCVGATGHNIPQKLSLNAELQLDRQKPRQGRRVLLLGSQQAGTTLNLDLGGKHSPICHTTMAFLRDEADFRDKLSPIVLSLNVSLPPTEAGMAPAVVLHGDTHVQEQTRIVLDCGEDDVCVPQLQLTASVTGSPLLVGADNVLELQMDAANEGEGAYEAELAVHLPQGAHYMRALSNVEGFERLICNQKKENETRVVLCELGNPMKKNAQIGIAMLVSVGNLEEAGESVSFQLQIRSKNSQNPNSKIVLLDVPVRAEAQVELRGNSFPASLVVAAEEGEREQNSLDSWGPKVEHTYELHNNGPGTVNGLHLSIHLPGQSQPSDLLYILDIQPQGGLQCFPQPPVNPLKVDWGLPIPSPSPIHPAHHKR
Chain of Integrin alpha-IIb/beta-3 (P08514 891-1039 limits assumed): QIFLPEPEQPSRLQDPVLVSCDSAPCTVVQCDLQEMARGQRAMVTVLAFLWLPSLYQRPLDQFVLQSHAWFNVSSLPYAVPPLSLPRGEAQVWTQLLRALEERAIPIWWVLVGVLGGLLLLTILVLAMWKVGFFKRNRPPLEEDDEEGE

`CC(C)C1CN(C)C(CCCN=C(N)NC(=O)c2ccc(N=[N][Tc]345(=[P@SP2](c6ccc([S@TB1](=O)(=O)O)cc6)(c6ccccc6S(=O)(=O)O)c6ccccc6[S@TB1](=O)(=O)O)[O]CC[N]3C(CO)(C[O]4)C[O]5)nc2)C(=O)NCC(=O)NC(CC(=O)O)C(=O)NCc2cc(NC(=O)CCCCCN)cc(c2)C(=O)N1` (stereo unspecified) [RP-444] yielded an IC50 of 13 nM.
